Data reported in patent publication US8242170B2, “Use of cis-epoxyeicosatrienoic acids and inhibitors of soluble epoxide hydrolase to reduce cardiomyopathy” (The Regents of the University of California, priority 2005, dated 2012).
Entries after “also recorded” stand apart in the source; their conditions may differ. One block for each compound: values may come before it.

Tests used:
Metabolic stability = type: in vitro ADME
[1] = biological target: T1, soluble epoxide hydrolase (sEH) (Homo sapiens, UniProt P34913); test: Inhibition of soluble epoxide hydrolase activity; type: biochemical
T1 sequence (P34913 with tags, fused parts or gaps A5G/DEL257-257/G258W): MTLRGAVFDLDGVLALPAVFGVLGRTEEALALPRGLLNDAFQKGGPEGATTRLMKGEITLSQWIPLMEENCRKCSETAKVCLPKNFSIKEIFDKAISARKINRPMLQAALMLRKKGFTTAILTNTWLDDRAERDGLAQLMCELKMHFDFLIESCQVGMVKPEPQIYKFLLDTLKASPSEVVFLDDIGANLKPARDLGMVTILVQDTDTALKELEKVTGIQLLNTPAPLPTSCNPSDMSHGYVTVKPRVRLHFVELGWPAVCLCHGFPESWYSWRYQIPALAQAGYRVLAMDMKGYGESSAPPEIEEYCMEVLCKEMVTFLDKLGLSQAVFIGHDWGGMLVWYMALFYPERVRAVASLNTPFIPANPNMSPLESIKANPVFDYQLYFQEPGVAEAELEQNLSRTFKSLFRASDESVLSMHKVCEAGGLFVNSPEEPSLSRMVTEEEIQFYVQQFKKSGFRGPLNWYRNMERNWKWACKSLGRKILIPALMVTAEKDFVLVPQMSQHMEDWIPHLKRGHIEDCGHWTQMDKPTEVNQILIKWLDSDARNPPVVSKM
Text: Any of a number of standard assays for determining epoxide hydrolase activity can be used to determine inhibition of sEH. For example, suitable assays are described in Gill, et al., Anal Biochem 131, 273-282 (1983); and Borhan, et al., Analytical Biochemistry 231, 188-200 (1995)). Suitable in vitro assays are described in Zeldin et al., J. Biol. Chem. 268:6402-6407 (1993). Suitable in vivo assays are described in Zeldin et al., Arch Biochem Biophys 330:87-96 (1996). […]
The enzyme also can be detected based on the binding of specific ligands to the catalytic site which either immobilize the enzyme or label it with a probe such as dansyl, fluoracein, luciferase, green fluorescent protein or other reagent. […] The enzyme also can be detected based on the generation of fluorescent products following the hydrolysis of the epoxide. […]

[2] = tested on: TAC-mice (thoracic aortic constriction, cardiac hypertrophy); test: Thoracic aortic constriction (TAC) mouse model of pressure overload cardiac hypertrophy; type: in vivo, mouse (C57B1/6J); conditions: for Hypertrophic response, H&E-stained histologic sections (FIG. 2): 3 weeks, compound 950 15 mg/kg twice a day, AUDA-BE 3 mg/kg twice a day, in drinking water; for Cardiac hypertrophy after drug treatment: sEH inhibitor in drinking water for three weeks
Description: Ascending aortic constriction was performed in 8-week-old male C57B1/6J mice (Charles River, Wilmington, Mass.). Animals were anesthetized with intraperitoneal ketamine 50 mg/kg and xylazine 2.5 mg/kg, and aortic constriction was created via a left thoracotomy by placing a ligature securely around the ascending aorta and a 26-gauge needle and then removing the needle. Immediately after the surgery, animals with ascending aortic stenosis were randomized and placed in one of the following regimens for three weeks: (a) compound 950 in drinking water ([…]), (b) AUDA-BE in drinking water, or (c) no drug. Age-matched animals served as controls.
To assess systolic function, echocardiograms were performed using M-mode and two-dimensional measurements as described previously. The measurements represented the average of six selected cardiac cycles from at least two separate scans performed in random-blind fashion with papillary muscles used as a point of reference for consistency in level of scan. End diastole was defined as the maximal left ventricle diastolic dimension and end systole was defined as the peak of posterior wall motion. Fractional shortening (FS), a surrogate of systolic function, was calculated from left ventricle dimensions as follows: FS=((EDD−ESD)/EDD)×100%.
To compare myocyte size, hearts were removed and rinsed for 1 minute in 0.1 mol/L phosphate buffered saline (PBS) with 50 mmol/L KCl (pH 7.2) and subsequently fixed overnight at 4° C. in 4% paraformaldehyde prepared in PBS. Vibratome sections (100 μm) from similar areas of the left ventricles were stained in a 1:20 dilution of rhodamine phalloidin (Molecular Probes, Inc., Eugene, Oreg.) and imaged with a BioRad MRC1000 confocal scanning laser microscope (BioRad Laboratories, Hercules, Calif.). A minimum of 5 optical sections was collected from the free wall of the left ventricle of each animal with a Zeiss 60× NA 1.4 lens. All images used for myocyte measurements were collected with identical laser, iris, gain, and black level operating parameters. Myocyte widths were measured parallel to the direction of the sarcomeres from unbranched regions of the myocytes near an intercalated disk with the length/profile function. Data sets were then compared using Student t tests.
Thoracic aortic constrictions (“TACs”) were created in 8-week-old male C57B1/6J mice as described in Example 1, above, resulting in a chronic pressure overload induced cardiac hypertrophy. TAC-mice were randomized to receive either no therapy or one of two exemplar sEH inhibitors (compound 950 and AUDA-BE) in drinking water for a period of three weeks. […] This effect is independent of the anti-hypertensive action of the drugs, since the hearts were constantly exposed to the high afterload created by the aortic constriction.
All the mice were sacrificed at three weeks after the TAC was created.
FIG. 2 further compares hematoxylin and eosin (“H&E”)-stained histologic section of a sham-operated heart and of TAC-mouse hearts with or without sEHI treatment. […] We further assessed the chamber size and wall thickness in untreated TAC-mice compared to treated TAC-mice using echocardiography.

[3] = tested on: neonatal mouse cardiac myocytes; test: Angiotensin II induced hypertrophy of primary neonatal mouse cardiac myocytes in culture; type: cell-based, mouse (C57B1/6J); conditions: 48 hours of treatment with ANG II
Description: Single cardiac myocytes were isolated from 5 day old neonatal mice (C57B1/6J) as previously described (Nuss & Marban, J. Physiol. 479 (Pt 2):265-79 (1994); Chiamvimonvat et al., J. Physiol. 483 (Pt 2):307-18 (1995)). Mice were anesthetized with pentobarbital (40 mg/kg) intraperitoneally. Animals were sacrificed by decapitation and hearts excised under sterile conditions into a filter sterilized (0.2 μm) nominally Ca^2+-, bicarbonate-free Hanks HEPES-buffered solution, pH 7.4 at room temperature. Atrial and great vessel tissues were carefully removed. The ventricles were washed and minced in this Ca^2+-free buffered solution containing trypsin (Difco®, BD Diagnostic Systems, Sparks Md., 1.5 mg/ml), DNase (1 ml/100 ml of the enzyme solution). The tissues were then incubated with 2 ml of the enzyme solution and stirred continuously at 37° C. The supernatant was removed and the enzyme solution replaced at five-minute intervals. The supernatant obtained after the first 15 minutes was discarded. Thereafter, the supernatant was diluted 1:1 in bovine calf serum. The cells were centrifuged at 2000 r.p.m. for three minutes and resuspended in MEM culture medium (Invitrogen, Carlsbad, Calif.) containing 5% bovine calf serum (Invitrogen), penicillin G (sodium) and vitamin B12. The viability of the cells was assessed using the trypan blue dye exclusion test. […]

[4] = tested on: TAC-mice (thoracic aortic constriction, cardiac hypertrophy); test: Thoracic aortic constriction (TAC) mouse model of pressure overload cardiac hypertrophy; type: in vivo, mouse (C57B1/6J); conditions: after 3 and 6 weeks of follow up

Metabolic stability (Metabolic stability): metabolically stable
Activity as inhibitor of sEH [1]: particularly high activity on sEH
SMILES: CCCCCCCCCCCCNC(=O)NC12CC3CC(CC(C3)C1)C2 [ADU, N-Adamantyl-N′-dodecyl urea]

SMILES: CCCCOC(=O)CCCCCCCCCCCNC(=O)NC12CC3CC(CC(C3)C1)C2 [AUDA-BE, 12-(3-Adamantan-1-yl-ureido)dodecanoic acid butyl ester]
Hypertrophic response, H&E-stained histologic sections (FIG. 2) [2]: prevents the development of cardiac hypertrophy; also recorded: completely prevented
Cardiac hypertrophy after drug treatment [2]: almost complete resolution of cardiac hypertrophy

SMILES: CCOCCOCCOCCCCCNC(=O)NC12CC3CC(CC(C3)C1)C2 [compound 950, Adamantan-1-yl-3-{5-[2-(2-ethoxyethoxy)ethoxy]pentyl}urea]
Cell size of neonatal cardiac myocytes, ANG II plus compound versus ANG II alone [3]: significant differences in the cell size
Hypertrophic response, H&E-stained histologic sections (FIG. 2) [2]: prevents the development of cardiac hypertrophy; also recorded: completely prevented
Development of cardiac hypertrophy and failure, M-mode echocardiography (FIG. 3) ([2]; after three weeks of treatment): completely prevented the development of cardiac hypertrophy and failure
Cardiac hypertrophy, whole hearts (FIG. 1) ([2]; drinking water three weeks, sacrificed at three weeks after TAC): no evidence of cardiac hypertrophy
Loss of organization of the myofibrils (myofibril disarray), anti-alpha actinin immunofluorescence (FIG. 4) ([2]; left ventricle sections, three weeks): effects were prevented
Cardiac hypertrophy after drug treatment [2]: almost complete resolution of cardiac hypertrophy
Development of cardiac hypertrophy and failure, echocardiography [4]: can prevent the development of cardiac hypertrophy and failure
